What is called IC50 is the concentration needed to halve the response being measured. A high value points to weaker potency in that assay.

Experimental findings from article PMC6271632, “Tryptophan as a Probe to Study the Anticancer Mechanism of Action and Specificity of α-Helical Anticancer Peptides” (Molecules, 2014) are described below.

A short description of data set [1]: RP-HPLC retention time (relative hydrophobicity). It is filed as physicochemical. As to conditions: measure of relative hydrophobicity, Zorbax 300 SB-C8 150 × 4.6 mm, linear AB gradient 1% acetonitrile/min, 0.1% TFA, 1 mL/min. As to the method: The relative hydrophobicity of the peptides was determined by measuring their RP-HPLC retention times at 25 °C. The retention times of peptides are highly sensitive to the helicity of peptides upon the interaction between the peptide with the hydrophobic environment of the column matrix. From Table 2, the relative hydrophobicity of peptide analogs is in the order PCW < PMW < PNW. […] It is well known that the chromatography conditions characteristic of RP-HPLC (hydrophobic stationary phase, non-polar eluting solvent) induce helical structures in potentially helical peptides in a manner similar to that of the helix-inducing solvent trifloroethanol (TFE).
Peptide samples were analyzed on a Shimadzu LC-20A HPLC column. Runs were performed on a Zorbax 300 SB-C8 column (150 × 4.6 mm ID, 5 μm particle size, 300Å pore size) from Agilent Technologies, using a linear AB gradient (1% acetonitrile/min) and a flow rate of 1 mL/min, in which eluent A was 0.1% aqueous TFA in water and eluent B was 0.1% TFA in acetonitrile. Temperature profiling analyses during RP-HPLC were performed in 5 °C increments, from 5 °C to 80 °C, as described previously.

Data set [2] in a line: RP-HPLC temperature profiling (peptide self-association). The data set is classed as physicochemical. To be noted: RP-HPLC temperature profiling 5 to 80 °C in 5 °C increments; maximal retention time difference normalised to control peptide C; Zorbax 300 SB-C8. As to the method: Figure 2 Peptide self-association ability during RP-HPLC temperature profiling. The retention behavior of the peptides was normalized to that of the random coil peptide C through the expression (tR^t − tR^5 for peptide analogs) minus (tR^t − tR^5 for control peptide C), where tR^t is the retention time at a specific temperature of the anticancer peptides or the random coil peptide, and tR^5 is the retention time at 5 °C.
We utilized the RP-HPLC temperature profiling technique to determine the peptide self-association ability in aqueous solution which we believe is a very important parameter to understand anticancer activity. When the self-association ability of a peptide is too strong in aqueous solution, it could decrease the ability of the peptide to dissociate and penetrate into membranes to kill target cells. […] The curves were normalized with the control peptide C which is a monomeric random coil peptide in both aqueous and hydrophobic media, showing only the general temperature effects. The peptide self-association parameter (PA) is the maximum change in peptide retention time relative to the control peptide C, to quantify the self-association ability of peptides in solution. The details of how to determine peptide self-association parameter were reported previously. […]
Peptide samples were analyzed on a Shimadzu LC-20A HPLC column. […]

Data set [3] in a line: Circular dichroism spectroscopy (helicity). The data set is classed as physicochemical. To be noted: for [θ]222 Benign / [θ]222 SDS in Buffer / [θ]222 50%TFE: CD, 222 nm, 75 μM peptide; for [θ]222 Benign / [θ]222 SDS in Buffer / [θ]222 50%TFE / % Helix SDS in Buffer / % Helix 50%TFE: 25 °C; for [θ]222 Benign: KP buffer (100 mM KCl, 50 mM KH2PO4/K2HPO4, pH 7.4); for [θ]222 SDS in Buffer / % Helix SDS in Buffer: KP buffer with 10 mM SDS; for [θ]222 50%TFE / % Helix 50%TFE: KP buffer with 50% TFE; for % Helix Benign / % Helix SDS in Buffer / % Helix 50%TFE: relative to molar ellipticity of PMW in 50% TFE; for % Helix Benign: KP buffer pH 7.4, 25 °C. As to the method:
Peptide secondary structure was measured by CD spectroscopy on a Jasco-810 spectropolarimeter under mild buffer conditions (50 mM KH2PO4/K2HPO4, and 100 mM KCl, pH 7), in 50% TFE and under mild buffer conditions with 10 mM SDS to mimic the hydrophobic environment of the cell membrane (Figure 1 and Table 2). All peptide analogs show negligible helical structures with molar ellipticity values ranging from −5900 to −7800 under mild conditions. In contrast, all peptide analogs were induced into highly helical structures with molar ellipticity values ranging from −24,300 to −31,700 in the hydrophobic environment of 50% TFE and molar ellipticity values ranging from −17,800 to −27,300 in the hydrophobic buffer environment in the presence of 10 mM SDS. […] It is obvious that the tryptophan residue played an important role in stabilizing the helical structure at the N-terminus or in the middle position of the peptide sequence.
Circular dichroism (CD) spectra were acquired with a 0.02 cm path length quartz cuvette on a Jasco J-810 spectropolarimeter (Jasco, Easton, MD, USA) at 25 °C as described previously. The concentration of 75 μM peptides was measured in benign buffer (50 mM KH2PO4/K2HPO4, and 100 mM KCl (pH 7.4)), benign buffer with 50% TFE and benign buffer with 10 mM SDS at 25 °C. The mean residue molar ellipticities were calculated by the equation [θ] = θ/10lCMn and θ is the ellipticity in millidegrees, l is the optical path length of the cuvette in centimeters, CM is the peptide concentration in mole/liter, and n is the number of residues in the peptide. The values of mean residue molar ellipticities of the peptide analogs at 222 nm were used to determine the relative helicity of the peptides.

The test system of a further data set is HeLa cells. The data set is classed as cell-based, Human. To be noted: 1 h. Here is the method:
The MTT assay has been used to test cytotoxicity of reagents and cell viability. Human cervix carcinoma cells (HeLa cells) were seeded in 96-well plates and incubated with serially 2-fold diluted concentration of different peptides (μM) for 1 h at 37 °C. As a negative control, cells were cultured without addition of the peptides. Thereafter, 20 μL of 5 mg/mL MTT solution in PBS were added to cells and treated for 4 h at 37 °C. The formazan crystals were dissolved by adding 150 μL dimethyl sulfoxide (DMSO) just before spectrometric determination. The absorbance was determined at 490 nm. The results were expressed as IC50, representing the concentration at which cell ability was reduced by 50%. The cytotoxicity assays were repeated in triplicates.

The subject of a further data set is human red blood cells. The data set is classed as cell-based. To be noted: red cells of human, 1 h. As to the method:
Peptide samples were serially diluted by PBS in 96-well plates (round bottom) to give a volume of 70 μL sample solution in each well. Human erythrocytes anticoagulated by EDTAK2 were collected by centrifugation (1000 rpm) for 5 min, and washed twice by PBS, then diluted to a concentration of 2% in PBS. 70 μL of 2% erythrocytes were added to each well to give a final concentration of 1% human erythrocytes in each well and plates were incubated at 37 °C for 1 h. The plates were then centrifuged for 10 min at 3,000 rpm and supernatant (90 μL) was transferred to a 96-well plate (flat bottom). The release of hemoglobin was determined by measuring the absorbance of the supernatant at 540 nm. The hemolytic activity was determined as the minimal peptide concentration that caused hemolysis (minimal hemolytic concentration, MHC). Erythrocytes in PBS and distilled water were used as control of 0% and 100% hemolysis, respectively.

Data set [4] is described as follows: Isothermal titration calorimetry with DMPC LUVs. It is filed as binding. As to conditions: ITC, 25 °C. Here is the method: The interaction of the peptides PNW and PCW with phospholipids was investigated using ITC at 25 °C, in which DMPC or DMPS LUVs were injected into an ITC cell containing peptide solutions of PNW or PCW. Based on the tryptophan fluorescence and quenching experiments, PNW and PCW could cover the trend of peptide-membrane interaction, thus, PMW was not included in the liposome experiments. The interaction of peptides with phospholipid bilayer membrane is entropy-driven. […] It is clear to see that the endothermic heat flow decreased with the increase of the number of injections and the free peptide concentration in the cell decreased simultaneously. The endothermic binding reaction of peptide PNW ceased after 20 injections, when all of peptide in bulk bound to DMPC LUVs (Figure 4A) and the further addition of DMPC LUVs caused dilution heat. However, the endothermic binding reaction of PCW ceased after 22 injections.
To mimic cancer cell and normal cell membranes, desired phospholipid powders were mixtured under certain ratios. Phospholipid mixtures were dissolved in chloroform, dried by N2 flow, and then vacuumed overnight to remove the trace of organic solvents. […] The phospholipid concentrations were determined by phosphorus analysis. […]

Data set [5] in a line: Isothermal titration calorimetry with DMPS LUVs. It is filed as binding. To be noted: ITC, 25 °C, 10 mM HEPES, 150 mM NaCl pH 7.0. Here is the method:
To mimic cancer cell and normal cell membranes, desired phospholipid powders were mixtured under certain ratios. Phospholipid mixtures were dissolved in chloroform, dried by N2 flow, and then vacuumed overnight to remove the trace of organic solvents. The lipids were hydrated in 10 mM HEPES and 150 mM NaCl buffer (pH 7.4) and extensively vortexed above the phase-transition temperature of phospholipid, obtaining multilamellar large vesicles (MLVs). To obtain large unilamellar vesicles (LUVs), the MLVs was exposed to five freeze-thaw cycles and pass 21 times through two polycarbonate membrane (0.1 μm) with a mini-extruder above the phase-transition temperature of phospholipids. The phospholipid concentrations were determined by phosphorus analysis.
The affinity of peptides with LUV liposomes were detected by a Nano ITC2G isothermal titration calorimeter (TA Instrument Corp., New Castle, DE, USA) at 25 °C, under HEPES buffer condition (10 mM HEPES, and 150 mM NaCl (pH 7.0)). To avoid air bubbles, peptides and LUV solutions were degassed under vacuum 500 mmHg, for 14 min before using. […]
A general note: ITC needs no label: the signal is the heat of the interaction.

`CC[C@H](C)[C@H](NC(=O)[C@H](CCCCN)NC(C)=O)C(=O)N[C@@H](CCCCN)C(=O)N[C@@H](CO)C(=O)N[C@@H](Cc1ccccc1)C(=O)N[C@@H](CC(C)C)C(=O)N[C@@H](CCCCN)C(=O)N[C@H](C(=O)N[C@@H](Cc1ccccc1)C(=O)N[C@@H](CCCCN)C(=O)N[C@@H](CO)C(=O)N[C@@H](CC(C)C)C(=O)N[C@@H](CCCCN)C(=O)N[C@@H](CCCCN)C(=O)N[C@H](C(=O)N[C@H](C(=O)N[C@@H](CC(C)C)C(=O)N[C@@H](Cc1c[nH]cn1)C(=O)N[C@H](C(=O)N[C@@H](CC(C)C)C(=O)N[C@@H](CC(C)C)C(=O)N[C@@H](CCCCN)C(=O)N[C@@H](C)C(=O)N[C@@H](Cc1c[nH]c2ccccc12)C(=O)N[C@@H](CO)C(=O)N[C@@H](CO)C(N)=O)[C@@H](C)O)C(C)C)[C@@H](C)O)[C@@H](C)O` [PCW] came in with a tR (retention time at 25 °C by RP-HPLC) in data set [1] of 45.6 min. In data set [2], the “PA (association parameter)” value came out at 4.5 min. Further, in data set [3], the “[θ]222 Benign” value is reported as −5900 degree cm^2 dmol^−1, the “[θ]222 SDS in Buffer” value was −17,800 degree cm^2 dmol^−1, the “[θ]222 50%TFE” value is −24300 degree.cm^2.dmol^−1 and the “% Helix Benign” value amounted to 18%. Further, in data set [3], the “% Helix SDS in Buffer” value is recorded as 56% and the “% Helix 50%TFE” value was 76%. The molecule also displayed an IC50 in the data set with HeLa cells of 2330 ± 120 nM. For the same molecule, the “MHC (minimal hemolytic concentration)” value in the data set on human red blood cells was found to be 10.41 ± 0.01 µM. Besides, the “affinity constant Ka to DMPC LUVs” value in data set [4] was 4150 M⁻¹. Moreover, the “Ka (affinity constant)” value in data set [4] (10 mM HEPES, 150 mM NaCl pH 7.0) was 4.15 [M]^−1× 10^3. Also, in data set [5], the “Ka (affinity constant)” value is 17.70 [M]^−1× 10^3.
In turn, `CC[C@H](C)[C@H](NC(=O)[C@H](C)NC(=O)[C@H](CCCCN)NC(=O)[C@H](CC(C)C)NC(=O)[C@H](CC(C)C)NC(=O)[C@@H](NC(=O)[C@H](Cc1c[nH]cn1)NC(=O)[C@H](CC(C)C)NC(=O)[C@@H](NC(=O)[C@@H](NC(=O)[C@H](CCCCN)NC(=O)[C@H](CCCCN)NC(=O)[C@H](Cc1c[nH]c2ccccc12)NC(=O)[C@H](CO)NC(=O)[C@H](CCCCN)NC(=O)[C@H](Cc1ccccc1)NC(=O)[C@@H](NC(=O)[C@H](CCCCN)NC(=O)[C@H](CC(C)C)NC(=O)[C@H](Cc1ccccc1)NC(=O)[C@H](CO)NC(=O)[C@H](CCCCN)NC(=O)[C@@H](NC(=O)[C@H](CCCCN)NC(C)=O)[C@@H](C)CC)[C@@H](C)O)[C@@H](C)O)C(C)C)[C@@H](C)O)C(=O)N[C@@H](CO)C(=O)N[C@@H](CO)C(N)=O` [PMW] displayed a tR (retention time at 25 °C by RP-HPLC) in data set [1] of 46.5 min. In addition, the “PA (association parameter)” value in data set [2] was 5.3 min. For the same molecule, in data set [3], the “[θ]222 Benign” value is −7400 degree cm^2 dmol^−1, the “[θ]222 SDS in Buffer” value is on record as −25,050 degree cm^2 dmol^−1, the “[θ]222 50%TFE” value was −31900 degree.cm^2.dmol^−1 and the “% Helix Benign” value amounted to 23%. Besides, in data set [3], the “% Helix SDS in Buffer” value is 79% and the “% Helix 50%TFE” value worked out at 100%. The molecule further showed an IC50 with HeLa cells of 2470 ± 180 nM. Moreover, the “MHC (minimal hemolytic concentration)” value in the data set with human red blood cells worked out at 10.41 ± 0.01 µM.
